Bounds are passed on as bounds.

This note sets out measurements from patent US20250382302A1, “Anticancer polyheterocyclic compounds and associated methods” (University of Denver, priority 2024, published 2025).

In experiment [1] the test system is KM12. The following applies: Colon Cancer.
Experiment [2] concerns KM12. Put plainly: cells. Particulars: Homo sapiens.
The next experiment has as its system K-562. Put plainly: NCI five-dose testing, K-562. Particulars: for GI50 / CC50: Homo sapiens; for GI50: K562; for CC50: K562, read-out: LC50; for TGI: Leukemia, K-562.
In another experiment the test system is T-47D. Put plainly: NCI five-dose testing, T-47D. Particulars: for TGI: Breast Cancer, T-47D; for GI50 / CC50: Homo sapiens, T47D; for CC50: read-out: LC50.
A further experiment relates to MOLT-4. Briefly: NCI five-dose testing, MOLT-4. Particulars: for GI50 / CC50: Homo sapiens; for GI50 / TGI: MOLT-4; for CC50: MOLT-4, read-out: LC50; for TGI: Leukemia.
Another experiment deals with OVCAR-3. Put plainly: NCI five-dose testing, OVCAR-3. The following applies: for GI50 / CC50: Homo sapiens; for GI50 / TGI: OVCAR-3; for CC50: OVCAR-3, read-out: LC50; for TGI: Ovarian Cancer.
The subject of a further experiment is CCRF-CEM. Briefly: NCI five-dose testing, CCRF-CEM. Particulars: for GI50 / CC50: Homo sapiens; for CC50: read-out: LC50; for TGI: Leukemia.
A further experiment has as its system NCI-H522. Put plainly: NCI five-dose testing, NCI-H522. The following applies: for GI50 / CC50: Homo sapiens; for GI50 / TGI: NCI-H522; for CC50: NCI-H522, read-out: LC50; for TGI: Non-Small Cell Lung Cancer.
The test system of the next experiment is HL-60(TB). Put plainly: NCI five-dose testing, HL-60(TB). The following applies: for GI50 / CC50: Homo sapiens; for GI50: HL-60; for CC50: HL-60, read-out: LC50; for TGI: Leukemia, HL-60(TB).
The subject of the next experiment is RPMI-8226. Put plainly: NCI five-dose testing, RPMI-8226. Particulars: for GI50 / CC50: Homo sapiens; for GI50 / TGI: RPMI-8226; for CC50: RPMI-8226, read-out: LC50; for TGI: Leukemia.
Another experiment deals with MDA-MB-468. Briefly: NCI five-dose testing, MDA-MB-468. Particulars: for TGI: Breast Cancer; for TGI / GI50: MDA-MB-468; for GI50 / CC50: Homo sapiens; for CC50: MDA-MB-468, read-out: LC50.
A further experiment has as its system SR. Briefly: NCI five-dose testing, SR. Particulars: for GI50 / CC50: Homo sapiens; for CC50: read-out: LC50; for TGI: Leukemia.
Another experiment has as its system MCF7. Briefly: NCI five-dose testing, MCF7. Particulars: for TGI: Breast Cancer; for TGI / GI50: MCF7; for GI50 / CC50: Homo sapiens; for CC50: MCF7, read-out: LC50.
A further experiment concerns SK-MEL-5. Briefly: NCI five-dose testing, SK-MEL-5. It counts as cell-based. Particulars: Melanoma; for GI50 / CC50: Homo sapiens; for CC50: read-out: LC50 (the source's name).
In a further experiment the test system is IGROV1. Put plainly: NCI five-dose testing, IGROV1. Type of experiment: cell-based. Particulars: for GI50 / CC50: Homo sapiens, IGROV-1, Ovarian Cancer; for CC50: read-out: LC50 (the source's name); for TGI: Ovarian Cancer.
A further experiment concerns OVCAR-4. Briefly: NCI five-dose testing, OVCAR-4. Particulars: for GI50 / CC50: Homo sapiens; for GI50 / TGI: OVCAR-4; for CC50: OVCAR-4, read-out: LC50; for TGI: Ovarian Cancer.
A further experiment deals with EKVX. Briefly: NCI five-dose testing, EKVX. The following applies: Non-Small Cell Lung Cancer. Type of experiment: cell-based.
The next experiment concerns RXF 393. Briefly: NCI five-dose testing, RXF 393. It counts as cell-based. Particulars: Renal Cancer.
A further experiment deals with SK-MEL-2. Briefly: NCI five-dose testing, SK-MEL-2. It counts as cell-based. The following applies: Melanoma.
The mark [3] stands for this setting: Homo sapiens, read-out: LC50 (the source's name).

On to `COc1cccc(OC)c1N(Cc1ccoc1)C(=O)C(=O)NC1=CC(=O)c2ccccc2C1=O`, for which the TGI in the experiment on KM12 [1] was 3.51 × 10^−6; in the experiment on K-562, 2.80 × 10^−6; with T-47D it was 2.81 × 10^−6; with MOLT-4, 1.57 × 10^−6; with OVCAR-3, 2.42 × 10^−6; with CCRF-CEM, 1.48 × 10^−6. The TGI is given as 2.61 × 10^−6 in the experiment with NCI-H522, 5.69 × 10^−7 in the experiment with HL-60(TB), 2.57 × 10^−6 in the experiment on RPMI-8226 and 8.99 × 10^−7 with MDA-MB-468. Also, the concentration for 50% growth inhibition (GI50) in the experiment with KM12 [2] (KM12) is 1250 nM; in the experiment with K-562, 1460 nM; in the experiment on T-47D it was 1480 nM; in the experiment on MOLT-4, 462 nM; with OVCAR-3, 1180 nM; in the experiment on CCRF-CEM, 437 nM. In addition, the GI50 is 1330 nM in the experiment with NCI-H522, 282 nM with HL-60(TB), 1300 nM with RPMI-8226 and 251 nM in the experiment on MDA-MB-468. Moreover, the CC50 in the experiment with KM12 [2] (KM12, read-out: LC50) is 9840 nM; in the experiment with K-562, 5370 nM; with T-47D it was 5340 nM; in the experiment on MOLT-4, 3980 nM; with OVCAR-3 it was 4960 nM; in the experiment on CCRF-CEM, 3890 nM. The CC50 is 5140 nM with NCI-H522, 1480 nM in the experiment on HL-60(TB), 5120 nM in the experiment on RPMI-8226 and 3020 nM in the experiment on MDA-MB-468.

Regarding `COC1=C[C@H]2[C@H]3C[C@@H]1CN1C(=O)C(=O)N4C5=C(C(=O)c6ccccc6C5=O)[C@]3(OC)[C@]214`, the concentration for 50% growth inhibition (GI50) in the experiment on SR was 1400 nM; in the experiment with MCF7, 921 nM; in the experiment on RPMI-8226, 803 nM. The CC50 is 5310 nM in the experiment on SR, 8870 nM in the experiment with MCF7 and 4710 nM in the experiment on RPMI-8226. Also, the TGI is 2.72 × 10^−6 in the experiment on SR, 2.94 × 10^−6 with MCF7 and 2.05 × 10^−6 in the experiment with RPMI-8226.

As to `C=CCN(C(=O)C(=O)NC1=CC(=O)c2ccccc2C1=O)c1ccsc1C(=O)OC`, the GI50 with K-562 is 1450 nM; in the experiment on T-47D, 1320 nM; with MOLT-4, 1110 nM; in the experiment on CCRF-CEM it was 1300 nM; in the experiment on NCI-H522, 1450 nM; in the experiment on HL-60(TB) it was 1080 nM. The GI50 is 1470 nM in the experiment with RPMI-8226 and 226 nM in the experiment with MDA-MB-468. Besides, the CC50 with K-562 is 5280 nM; with T-47D it was 5140 nM; in the experiment on MOLT-4, 4810 nM; in the experiment on CCRF-CEM it was 5070 nM; with NCI-H522 it was 5280 nM; in the experiment with HL-60(TB) it was 4790 nM. In addition, the values for the CC50 with RPMI-8226 and in the experiment with MDA-MB-468 were 5280 nM and 3090 nM, respectively. Moreover, the TGI in the experiment on K-562 is 2.77 × 10^−6; in the experiment with T-47D, 2.61 × 10^−6; in the experiment with MOLT-4 it was 2.31 × 10^−6; in the experiment with CCRF-CEM it was 2.57 × 10^−6; in the experiment on NCI-H522, 2.77 × 10^−6; in the experiment on HL-60(TB) it was 2.27 × 10^−6. For the same molecule, the TGI with RPMI-8226 was 2.79 × 10^−6; with MDA-MB-468, 9.41 × 10^−7.

As for `O=C1C=C(NC(=O)[C@H](Cc2ccccc2)n2cccc2)C(=O)c2ccccc21`, the TGI in the experiment on T-47D is 2.74 × 10^−6; in the experiment on MOLT-4, 1.84 × 10^−6; with CCRF-CEM it was 2.32 × 10^−6. In addition, the 50% growth inhibitory concentration (GI50) in the experiment with T-47D is 1420 nM; in the experiment on MOLT-4, 685 nM; in the experiment with CCRF-CEM, 1110 nM. The CC50 with T-47D was 5260 nM; with MOLT-4, 4290 nM; in the experiment with CCRF-CEM, 4840 nM.

In the case of `COC1=C[C@H]2C3=C(C(=O)c4ccccc4C3=O)N3C(=O)C(=O)N(Cc4ccco4)[C@]23C=C1`, in the experiment with SK-MEL-5, the GI50 was 1130 nM, the CC50 amounted to 9080 nM and the TGI was 3.21 × 10^−6. In the experiment on IGROV1, halving of growth (GI50) required 1380 nM, the CC50 was not below 100000 nM and the TGI was 6.38 × 10^−6. Moreover, in the experiment on MDA-MB-468, the TGI is recorded as 1.35 × 10^−6, growth was halved (GI50) at 177 nM and the CC50 was 7960 nM.

For `C=CCCOC1=C[C@H]2C3=C(C(=O)c4ccccc4C3=O)N3C(=O)C(=O)N(Cc4ccc(C)cc4)[C@]23C=C1`, in the experiment on SR, the GI50 came out at 862 nM, the CC50 is not below 100000 nM and the TGI was 1.00 × 10^−4. In the experiment with OVCAR-4, the GI50 is 875 nM, the CC50 was not below 100000 nM and the TGI is reported as 7.04 × 10^−6. Also, in the experiment on MDA-MB-468, the TGI was 6.86 × 10^−7, the GI50 is 20.9 nM and the CC50 is not below 100000 nM.

Regarding `COC1=CC2C3=C(C(=O)c4ccccc4C3=O)N3C(=O)C(=O)N(Cc4ccsc4)[C@]23C=C1` (stereo partly drawn), the GI50 in the experiment with EKVX (Homo sapiens) stood at 1110 nM; with SK-MEL-5, 10 nM; with IGROV1 it was 1270 nM; in the experiment on RXF 393 (Homo sapiens), 1430 nM; with MCF7, 1260 nM; in the experiment with MDA-MB-468, 113 nM. The CC50 with EKVX (setting [3]) was 25700 nM; with SK-MEL-5, 6040 nM; in the experiment on IGROV1, 70500 nM; with RXF 393 (setting [3]), 9920 nM; in the experiment on MCF7, 25200 nM; in the experiment on MDA-MB-468, 9320 nM. Besides, the TGI is listed as 5.75 × 10^−6 in the experiment on EKVX; 2.16 × 10^−6 in the experiment with SK-MEL-5; 1.40 × 10^−5 in the experiment with IGROV1; 3.76 × 10^−6 with RXF 393; 5.88 × 10^−6 in the experiment with MCF7; 8.16 × 10^−7 in the experiment on MDA-MB-468.

As to `COC1C[C@H]2C[C@]34CC3[C@H]2[C@]23C4C4=C(C(=O)c5ccccc5C4=O)N2C(=O)C(=O)N13` (stereo partly drawn), in the experiment with OVCAR-3, growth was halved (GI50) at 1490 nM, the CC50 is 19600 nM and the TGI is 4.93 × 10^−6. In the experiment with MDA-MB-468, the TGI is 3.18 × 10^−6, growth was halved (GI50) at 1310 nM and the CC50 was 7730 nM.

For `O=C1C2=C(C(=O)c3ccccc31)N1C(=O)N(Cc3ccccc3)C[C@@]13C=C[C@@H]2O3`, in the experiment on T-47D, the TGI is on record as 3.26 × 10^−6, it took 1390 nM to inhibit growth by half (GI50) and the CC50 was determined as 7640 nM. Besides, in the experiment on MDA-MB-468, the TGI is reported as 1.59 × 10^−6, it took 472 nM to inhibit growth by half (GI50) and the CC50 was 4080 nM.

As to `C[C@]12C3=C(C(=O)c4ccccc4C3=O)N3C(=O)C(=O)N4C[C@H]5C[C@@]16CC6[C@@]5(C)[C@@]432` (stereo partly drawn), the GI50 with SK-MEL-2 (Homo sapiens) is 1270 nM; with SK-MEL-5, 1300 nM; with OVCAR-4, 1360 nM; with CCRF-CEM it was 1230 nM; in the experiment on HL-60(TB) it was 267 nM; in the experiment on MDA-MB-468 it was 384 nM. In addition, the CC50 in the experiment on SK-MEL-2 (setting [3]) is 5200 nM; with SK-MEL-5 it was 7320 nM; with OVCAR-4, 5170 nM; in the experiment with CCRF-CEM it was 5000 nM; in the experiment with HL-60(TB), 3280 nM; in the experiment on MDA-MB-468, 4030 nM. For the same molecule, the TGI in the experiment on SK-MEL-2 is 2.57 × 10^−6; in the experiment with SK-MEL-5, 3.08 × 10^−6; with OVCAR-4 it was 2.65 × 10^−6; in the experiment on CCRF-CEM, 2.48 × 10^−6; in the experiment on HL-60(TB) it was 1.06 × 10^−6; in the experiment with MDA-MB-468, 1.55 × 10^−6.

What is called GI50 is the concentration that inhibits growth by half. Higher therefore signals lower sensitivity of the cells.
